The source of these data is BindingDB's records for PubMed 8169832 (University of Pennsylvania, 1994).

Structures are written as SMILES.

In this test the target is 5-hydroxytryptamine receptor 6 (Mus musculus, UniProt Q9R1C8).
5-hydroxytryptamine receptor 6, sequence (Q9R1C8 whole entry): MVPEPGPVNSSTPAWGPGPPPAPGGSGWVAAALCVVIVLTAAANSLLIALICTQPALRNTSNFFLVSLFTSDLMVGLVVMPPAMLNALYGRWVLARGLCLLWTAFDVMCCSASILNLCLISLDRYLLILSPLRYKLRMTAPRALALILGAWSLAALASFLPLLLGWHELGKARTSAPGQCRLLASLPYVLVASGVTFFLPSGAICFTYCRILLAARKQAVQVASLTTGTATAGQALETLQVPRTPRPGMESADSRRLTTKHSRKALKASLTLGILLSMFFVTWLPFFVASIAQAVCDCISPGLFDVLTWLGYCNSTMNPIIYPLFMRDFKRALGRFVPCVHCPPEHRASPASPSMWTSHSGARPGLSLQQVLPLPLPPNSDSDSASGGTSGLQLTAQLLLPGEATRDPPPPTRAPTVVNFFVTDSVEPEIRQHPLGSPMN

`Cc1[nH]c2ccc(O)cc2c1CCN` returned a Ki of 398 nM.
To `O=C(c1ccc(F)cc1)C1CCN(CCn2c(=O)[nH]c3ccccc3c2=O)CC1` [3-(2-{4-[(4-fluorophenyl)carbonyl]piperidin-1-yl}ethyl)-1,2,3,4-tetrahydroquinazoline-2,4-dione] belongs 1000 nM; to `Cn1cc(CCN)c2cc(O)ccc21` [5-HT,omega-N-Me], 2000 nM; to `CN1CCN(C2=c3ccccc3=Nc3ccc(Cl)cc3N2)CC1` [6-chloro-10-(4-methylpiperazin-1-yl)-2,9-diazatricyclo[9.4.0.0^{3,8}]pentadeca-1,3(8),4,6,10,12,14-heptaene], 31.6 nM.
To `CN1CCN2c3ccccc3Cc3ccccc3[C@H]2C1` [MIANSERIN (+)] belongs 19.9 nM; to `CN1CCc2cc(Cl)c(O)cc2[C@@H](c2ccccc2)C1` [SCH 23390,R(+)], 2510 nM; to `NCCc1c[nH]c2ccc(O)cc12` [[3H]-5-HT], 39.8 nM.
In turn, `CSc1ccc2c(c1)C(N1CCN(C)CC1)Cc1ccccc1S2` (stereo not drawn) [methanesulfonic acid;1-methyl-4-(3-methylsulfanyl-5,6-dihydrobenzo[b][1]benzothiepin-5-yl)piperazine] showed a Ki of 1.99 nM.
